In patent US20240277745A1, “PEMAFIBRATE AND/OR TOFOGLIFLOZIN FOR USE IN TREATING LIVER DISEASE” (KOWA COMPANY, LTD, priority 2021, published 2024):

Tests used:
[1] = system: patients with biopsy-confirmed NAFLD and type 2 diabetes; test: Example 3 clinical trial: liver histology (biopsy) at 48 weeks; type: in vivo, human; details: for histologic improvement from baseline to 48 weeks (in words): once-daily treatment
From the text: (§1) 1. The biopsy consistent with the diagnosis of NAFLD 2. Type 2 diabetes, HbA1c>=7.0% • Hepatic virus infections, autoimmune hepatitis, primary biliary cirrhosis, sclerosing cholangitis, haemochromatosis, antitrypsin deficiency, Wilsons disease, history of parenteral nutrition and use of drugs known to induce steatosis or hepatic injury caused by substance abuse and or the current or past consumption of more than 20 g of alcohol daily • Hypersensitivity to or contraindication of glimepiride and tofogliflozin • None type 2 diabetes • Poorly controlled diabetes • Repeated episodes of unexplained hypoglycemia • Concomitant infection or planned surgery • Poorly controlled hypertension • Severe retinopathy • Malignancy on an active therapeutic regimen or malignancy without complete remission or cure • Severe health problems not suitable for the study • Pregnant or lactating women • Inability to participate in the study as assessed by the investigators. A total of 40 patients were randomly assigned to receive once-daily tofogliflozin at a dose of 20 mg (20 patients) or to receive once-daily glimepiride (20 patients). All 40 patients (100%) completed the trial. Demographic and baseline clinical characteristics except for gender were similar in both groups. The patients were all Japanese and type 2 diabetes. The mean age was 53.9 years, the mean body weight 82.0 kg, the mean Hemoglobin A1c 8.2%, and the mean NAS 4.45. A total of 18 patients (45%) had stage F1 fibrosis, 11 (27.5%) had stage F2, and 5 (12.5%) had stage F3. A total of 40 patients were randomly assigned to receive once-daily tofogliflozin at a dose of 20 mg (20 patients) or to receive once-daily glimepiride (20 patients). All 40 patients (100%) completed the trial. Information for the primary and confirmatory secondary outcomes related to a biopsy at week 48 was available for 39 patients (97.5%). For only one patient with a serious adverse event (2.5%).

[2] = system: patients with biopsy-confirmed NAFLD and type 2 diabetes; test: Example 3 clinical trial: serum enzyme levels and liver test; type: in vivo, human
From the text: as §1

[3] = system: patients with biopsy-confirmed NAFLD and type 2 diabetes; test: Example 3 clinical trial: metabolic parameters; type: in vivo, human
From the text: as §1

[4] = system: adults with NAFLD; test: Example 1 clinical study: liver function (ALT, AST); type: in vivo, human; details: for ALT, percent change from baseline / AST, percent change from baseline: pemafibrate 0.4 mg/day BID; for ALT, mean difference / AST, mean difference: pemafibrate vs placebo
Method: (§2) This was a placebo-controlled, randomized, double-blind, parallel-group, study in adults with NAFLD. Subjects were administered pemafibrate tablets (0.4 mg/day, BID) or placebo tablets for 72 weeks following a screening period of from 2 to 8 weeks. The primary endpoint was percent change from baseline in liver fat content, measured by MRI-PDFF at week 24. The key secondary endpoints were percent changes in liver stiffness and ALT levels from baseline to week 72 and 24, respectively. The study was conducted in compliance with relevant guidelines, GCP guidance, and the Declaration of Helsinki.
(§3) Patients with a hepatic fat fraction ≥10% on MRI-PDFF, liver stiffness (measured using magnetic resonance elastography, MRE)≥2.5 kPa and elevated ALT (>40 U/L for men, >30 U/L for women) were enrolled. Patients were excluded in case of body mass index (BMI)<22 kg/m^2, uncontrolled diabetes (HbA1c≥8%), impaired renal function (estimated glomerular filtration rate, eGFR, <30 mL·min^−1·1.73^−1·m^−2 or on dialysis), cirrhosis, biliary obstruction, or chronic liver diseases other than NAFLD.
(§4) Subjects took their assigned medication (pemafibrate 0.2 mg tablet or placebo) orally, one tablet, twice daily, for 72 weeks. Study visits were set every 4 weeks from the start of treatment to week 24 and every 8 weeks from week 24 onwards. Liver fat content and liver stiffness were measured at screening examinations that took place pre-randomization and subsequently at weeks 0, 24, 48, and 72.
(§5) The primary efficacy endpoint was percent change in hepatic fat content, as measured using MRI-PDFF. Liver stiffness measured using MRE was a secondary endpoint and similarly assessed percent change from baseline values. Other efficacy endpoints included liver function, fibrosis and inflammatory markers, and lipid markers.

[5] = reported by Ishibashi 2016; cited from earlier work
[6] = system: adults with NAFLD; test: Example 1 clinical study: liver fat content by MRI-PDFF; type: in vivo, human; details: for Liver fat content by MRI-PDFF, Responder / Liver fat content by MRI-PDFF, percent change from baseline: pemafibrate 0.4 mg/day BID; for Liver fat content by MRI-PDFF, mean difference: pemafibrate vs placebo
Method: as §2, §3, §4
(§6) All imaging assessment procedures were performed blinded. The equipment used in all facilities was standardized to a 3.0 T MR Imaging System (GE Healthcare, Little Chalfont, UK). As an application, IDEAL-IQ for MRI-PDFF and MR-touch for MRE were used. Detailed imaging conditions are described in the “Imaging Procedure Manual” and imaging procedures were standardized throughout all tests. Imaging was performed during fasting (≥4 h postprandial) and the timing of testing (pre-breakfast/post-breakfast to pre-lunch/post-lunch) was unified for each patient throughout the study.
as §5

[7] = system: adults with NAFLD; test: Example 1 clinical study: liver stiffness by MRE; type: in vivo, human; details: for Liver stiffness by MRE, Responder / Liver stiffness by MRE, percent change from baseline: pemafibrate 0.4 mg/day BID; for Liver stiffness by MRE, mean difference: pemafibrate vs placebo
Method: as §2, §3, §4, §6, §5

[8] = system: LDL receptor knockout mice and KK-A mice fed with an MCD (methionine-choline-deficient) diet; details: cited from earlier work
[9] = system: adults with NAFLD; test: Example 1 clinical study: lipids; type: in vivo, human; details: for HDL cholesterol, percent change from baseline / LDL cholesterol, percent change from baseline / Non-HDL cholesterol, percent change from baseline / Total cholesterol, percent change from baseline / Triglycerides, percent change from baseline: pemafibrate 0.4 mg/day BID; for HDL cholesterol, mean difference / LDL cholesterol, mean difference / Non-HDL cholesterol, mean difference / Total cholesterol, mean difference / Triglycerides, mean difference: pemafibrate vs placebo
Method: as §2, §3, §4, §5

[10] = baseline to 48 weeks, tofogliflozin 20 mg once daily
[11] = week 48, P<0.001 for the comparison with glimepiride

For `CCc1ccc(Cc2ccc3c(c2)[C@]2(OC3)OC(CO)[C@@H](O)C(O)C2O)cc1` (stereo in doubt) [tofogliflozin, 6-((4-ethylphenyl)methyl)-3′,4′,5′,6′-tetrahydro-6′-(hydroxymethyl)spiro(isobenzofuran-1(3H),2′-(2H)pyran)-3′,4′,5′-triol], the “NAS compared with baseline values (in words)” value ([1]; 48 weeks) was “improved significantly”, the “fibrosis score (in words)” value ([1]; 48 weeks) was “significantly reduced” and the “lobular inflammation score (in words)” value ([1]; 48 weeks) was “significantly reduced”. For the same molecule, the “mean ballooning scores (in words)” value ([1]; 48 weeks) was “significantly reduced”, the “mean steatosis scores (in words)” value ([1]; 48 weeks) was “significantly reduced” and the “percentage of steatosis (in words)” value ([1]; 48 weeks) was “significantly reduced”. The “ratio of the patients with improvement in ballooning necrosis” value [1, 10] was 55%, the “ratio of the patients with improvement in lobular inflammation” value [1, 10] was 50% and the “ratio of the patients with improvement in steatosis” value [1, 10] was 65%. For the same molecule, the fibrosis scores improved ([1]; before and after treatment, 48 weeks, P=0.001) was 60%, the “histologic improvement from baseline to 48 weeks (in words)” value ([1]; 48 weeks) was “significant histologic improvements from baseline to 48 weeks in all variables” and the “FIB-4 index (in words)” value ([2]; tofogliflozin 20 mg once daily) was “significantly reduced”. For the same molecule, the “alanine aminotransferase levels (in words)” value ([2]; tofogliflozin 20 mg once daily) was “early and highly significant decrease”, the “aspartate aminotransferase levels (in words)” value ([2]; tofogliflozin 20 mg once daily) was “early and highly significant decrease” and the “gamma-glutamyl transferase, mean decrease” value [2, 11] was 23.8 IU/L. The “BMI (in words)” value ([3]; tofogliflozin 20 mg once daily) was “significant reduction”, the “percentage of body fat (in words)” value ([3]; tofogliflozin 20 mg once daily) was “significant reduction” and the “mean body weight decrease” value [3, 11] was 4.8 kg.
In the case of “(R)-2-[3-[[N-(benzoxazol-2-yl)-N-3-(4-methoxyphenoxy)propyl]aminomethyl]phenoxy]butyric acid [Pemafibrate]”, the “liver function as measured by ALT (in words)” value ([4]; Example 1 study, summary) is reported as “significant improvements”, the “ALT, percent change from baseline” value ([4]; Week 24) is reported as −39.53% and the “AST, percent change from baseline” value ([4]; Week 24) is reported as −9.21%. The “ALT, mean difference” value ([4]; Week 24) was −27.08%, the “AST, mean difference” value ([4]; Week 24) was −2.69% and the “ALT, percent change from baseline” value ([4]; Week 48) was −42.53%. The “AST, percent change from baseline” value ([4]; Week 48) was −9.75%, the “ALT, mean difference” value ([4]; Week 48) was −26.75% and the “AST, mean difference” value ([4]; Week 48) was −0.18%. For the same molecule, the “ALT, percent change from baseline” value ([4]; Week 72) was −43.84%, the “AST, percent change from baseline” value ([4]; Week 72) was −9.61% and the “ALT, mean difference” value ([4]; Week 72) was −33.60%. The “AST, mean difference” value ([4]; Week 72) was −4.48%, the “ALT concentrations (in words)” value [5] was “much more modest decrease” and the “LDL cholesterol (in words)” value [5] was “increase”. The “total cholesterol (in words)” value [5] was “modest decrease”, the “Liver fat content by MRI-PDFF, Responder” value ([6]; Week 24) was 20.7 (12) % and the “Liver fat content by MRI-PDFF, percent change from baseline” value ([6]; Week 24) was −5.28%. For the same molecule, the “Liver fat content by MRI-PDFF, mean difference” value ([6]; Week 24) was −1.04%, the “Liver fat content by MRI-PDFF, Responder” value ([6]; Week 48) was 10.3 (6) % and the “Liver fat content by MRI-PDFF, percent change from baseline” value ([6]; Week 48) was 0.50%. For the same molecule, the “Liver fat content by MRI-PDFF, mean difference” value ([6]; Week 48) was 1.03%, the “Liver fat content by MRI-PDFF, Responder” value ([6]; Week 72) was 22.4 (13) % and the “Liver fat content by MRI-PDFF, percent change from baseline” value ([6]; Week 72) was −4.88%. The “Liver fat content by MRI-PDFF, mean difference” value ([6]; Week 72) was −5.10%, the “liver stiffness when measured by MRE (in words)” value ([7]; Example 1 study, summary) was “significant improvements” and the “Liver stiffness by MRE, Responder” value ([7]; Week 24) was 19.0 (11) %. The “Liver stiffness by MRE, percent change from baseline” value ([7]; Week 24) was −5.03%, the “Liver stiffness by MRE, mean difference” value ([7]; Week 24) was −4.38% and the “Liver stiffness by MRE, Responder” value ([7]; Week 48) was 37.9 (22) %. For the same molecule, the “Liver stiffness by MRE, percent change from baseline” value ([7]; Week 48) was −9.01%, the “Liver stiffness by MRE, mean difference” value ([7]; Week 48) was −5.68% and the “Liver stiffness by MRE, Responder” value ([7]; Week 72) was 25.9 (15) %. The “Liver stiffness by MRE, percent change from baseline” value ([7]; Week 72) was −7.27%, the “Liver stiffness by MRE, mean difference” value ([7]; Week 72) was −6.15% and the “ballooning of hepatocytes, fat deposition, number of Kupffer cells (in words)” value [8] was “suppresses ballooning of hepatocytes and fat deposition and reduces the number of Kupffer cells”. The “HDL cholesterol (in words)” value ([9]; Example 1 study, summary) was “significant reductions”, the “LDL cholesterol (in words)” value ([9]; Example 1 study, summary) was “significant reductions” and the “total cholesterol (in words)” value ([9]; Example 1 study, summary) was “significant reductions”. The “HDL cholesterol, percent change from baseline” value ([9]; Week 24) was −1.68%, the “LDL cholesterol, percent change from baseline” value (from here on “LDL cholesterol, percent change”) ([9]; Week 24) was −14.72% and the “Non-HDL cholesterol, percent change from baseline” value ([9]; Week 24) was −13.82%. For the same molecule, the “Total cholesterol, percent change from baseline” value ([9]; Week 24) was −11.19%, the “Triglycerides, percent change from baseline” value (“Triglycerides, percent change” below) ([9]; Week 24) was −34.60% and the “HDL cholesterol, mean difference” value ([9]; Week 24) was −7.57%. The “LDL cholesterol, mean difference” value ([9]; Week 24) was −13.66%, the “Non-HDL cholesterol, mean difference” value ([9]; Week 24) was −12.82% and the “Total cholesterol, mean difference” value ([9]; Week 24) was −11.55%. For the same molecule, the “Triglycerides, mean difference” value ([9]; Week 24) was −31.11%, the “HDL cholesterol, percent change from baseline” value ([9]; Week 48) was −6.40% and the “LDL cholesterol, percent change” value ([9]; Week 48) was −14.22%. The “Non-HDL cholesterol, percent change from baseline” value ([9]; Week 48) was −12.95%, the “Total cholesterol, percent change from baseline” value ([9]; Week 48) was −11.55% and the “Triglycerides, percent change” value ([9]; Week 48) was −27.11%. For the same molecule, the “HDL cholesterol, mean difference” value ([9]; Week 48) was −10.24%, the “LDL cholesterol, mean difference” value ([9]; Week 48) was −16.37% and the “Non-HDL cholesterol, mean difference” value ([9]; Week 48) was −14.24%. For the same molecule, the “Total cholesterol, mean difference” value ([9]; Week 48) was −13.19%, the “Triglycerides, mean difference” value ([9]; Week 48) was −25.77% and the “HDL cholesterol, percent change from baseline” value ([9]; Week 72) was −7.38%. The “LDL cholesterol, percent change” value ([9]; Week 72) was −12.48%, the “Non-HDL cholesterol, percent change from baseline” value ([9]; Week 72) was −11.92% and the “Total cholesterol, percent change from baseline” value ([9]; Week 72) was −11.12%. For the same molecule, the “Triglycerides, percent change” value ([9]; Week 72) was −31.55%, the “HDL cholesterol, mean difference” value ([9]; Week 72) was −11.86% and the “LDL cholesterol, mean difference” value ([9]; Week 72) was −15.14%. For the same molecule, the “Non-HDL cholesterol, mean difference” value ([9]; Week 72) was −15.77%, the “Total cholesterol, mean difference” value ([9]; Week 72) was −14.86% and the “Triglycerides, mean difference” value ([9]; Week 72) was −32.67%.
With `CCC1=C(C)CN(C(=O)NCCc2ccc(S(=O)(=O)NC(=O)N[C@H]3CC[C@H](C)CC3)cc2)C1=O` [glimepiride] the “NAS compared with baseline values (in words)” value ([1]; 48 weeks) was “improved significantly”, the “mean ballooning scores (in words)” value ([1]; 48 weeks) was “significantly reduced” and the “histologic improvement from baseline to 48 weeks (in words)” value ([1]; 48 weeks) was “the only histologic improvement from baseline to 48 weeks was a reduction in ballooning necrosis”.
